In ChEMBL document CHEMBL5137000, “Discovery of a novel and potent inhibitor with differential species-specific effects against NLRP3 and AIM2 inflammasome-dependent pyroptosis” (Eur J Med Chem, 2022):
The source made the active and inactive calls. No cut-off for these calls is given here.

Biological target: NACHT, LRR and PYD domains-containing protein 3 (Homo sapiens) (UniProt Q96P20)
Experiment: Inhibition of NLRP3 inflammasome activation in LPS-primed human THP-1 cells assessed as reduction in nigericin-induced IL-1beta release in supernatant pretreated for 30 mins followed by nigericin stimulation and measured after 30 min by ELISA
Format: cell-based
Conditions: time 60.0 min

Sequence of NACHT, LRR and PYD domains-containing protein 3 (Homo sapiens) (Q96P20 whole entry, the tested form may be a part): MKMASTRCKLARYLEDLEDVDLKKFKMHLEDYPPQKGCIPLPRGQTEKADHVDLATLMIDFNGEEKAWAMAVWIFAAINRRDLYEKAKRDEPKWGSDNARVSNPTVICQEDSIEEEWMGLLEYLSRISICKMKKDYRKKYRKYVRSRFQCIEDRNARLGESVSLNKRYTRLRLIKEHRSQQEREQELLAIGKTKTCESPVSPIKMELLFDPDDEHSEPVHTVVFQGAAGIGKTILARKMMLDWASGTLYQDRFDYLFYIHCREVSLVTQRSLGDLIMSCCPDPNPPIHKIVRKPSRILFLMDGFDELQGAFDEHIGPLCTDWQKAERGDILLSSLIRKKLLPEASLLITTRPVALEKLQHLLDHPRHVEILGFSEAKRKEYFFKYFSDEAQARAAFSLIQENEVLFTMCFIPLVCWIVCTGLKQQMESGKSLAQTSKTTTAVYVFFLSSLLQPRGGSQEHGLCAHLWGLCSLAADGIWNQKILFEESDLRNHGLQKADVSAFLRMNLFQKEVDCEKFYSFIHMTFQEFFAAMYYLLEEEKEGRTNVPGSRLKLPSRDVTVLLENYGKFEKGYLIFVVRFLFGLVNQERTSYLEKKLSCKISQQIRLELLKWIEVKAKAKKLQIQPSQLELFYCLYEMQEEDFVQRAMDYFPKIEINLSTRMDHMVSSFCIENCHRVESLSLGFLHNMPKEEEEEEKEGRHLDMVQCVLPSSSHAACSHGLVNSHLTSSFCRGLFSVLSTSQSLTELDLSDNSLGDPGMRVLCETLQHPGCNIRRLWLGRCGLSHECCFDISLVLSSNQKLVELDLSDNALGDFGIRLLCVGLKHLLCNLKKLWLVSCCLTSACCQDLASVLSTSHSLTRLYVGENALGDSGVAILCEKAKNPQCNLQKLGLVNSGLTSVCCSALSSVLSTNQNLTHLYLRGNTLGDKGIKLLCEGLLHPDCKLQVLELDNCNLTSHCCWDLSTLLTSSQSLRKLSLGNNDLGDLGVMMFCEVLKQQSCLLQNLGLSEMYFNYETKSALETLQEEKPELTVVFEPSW

SMILES: COc1ccc(CC(=O)Nc2cccc(B(O)O)c2)cc1
- inhibition: Active
